Reference: PubChem BioAssay (NCI)
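A five-concentration, 48-hour dose response in 96-well plates underlies each endpoint, interpolated linearly between surrounding concentrations. TGI is the concentration that stops growth completely.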

Tests used:
Assay in all cases: growth of human tumour cells (NCI), 48 h
786-0 renal = test system: 786-0 renal
A498 renal = test system: A498 renal
A549 NSCLC = test system: A549 NSCLC
ACHN renal = test system: ACHN renal
CAKI-1 renal = test system: CAKI-1 renal
CCRF-CEM leukemia = test system: CCRF-CEM leukemia
COLO 205 colon = test system: COLO 205 colon
DU-145 prostate = test system: DU-145 prostate
EKVX NSCLC = test system: EKVX NSCLC
HCC-2998 colon = test system: HCC-2998 colon
HCT-116 colon = test system: HCT-116 colon
HCT-15 colon = test system: HCT-15 colon
HL-60(TB) leukemia = test system: HL-60(TB) leukemia
HOP-62 NSCLC = test system: HOP-62 NSCLC
HOP-92 NSCLC = test system: HOP-92 NSCLC
HS 578T breast = test system: HS 578T breast
HT29 colon = test system: HT29 colon
IGROV1 ovarian = test system: IGROV1 ovarian
K-562 leukemia = test system: K-562 leukemia
LOX IMVI melanoma = test system: LOX IMVI melanoma
M14 melanoma = test system: M14 melanoma
MALME-3M melanoma = test system: MALME-3M melanoma
MCF7 breast = test system: MCF7 breast
MDA-MB-231 breast = test system: MDA-MB-231 breast
MDA-MB-435 = test system: MDA-MB-435
MDA-N = test system: MDA-N
MOLT-4 leukemia = test system: MOLT-4 leukemia
NCI-H23 lung = test system: NCI-H23 lung
NCI-H460 lung = test system: NCI-H460 lung
NCI-H522 lung = test system: NCI-H522 lung
NCI/ADR-RES ovarian = test system: NCI/ADR-RES ovarian
OVCAR-3 ovarian = test system: OVCAR-3 ovarian
OVCAR-4 ovarian = test system: OVCAR-4 ovarian
OVCAR-5 ovarian = test system: OVCAR-5 ovarian
OVCAR-8 ovarian = test system: OVCAR-8 ovarian
PC-3 prostate = test system: PC-3 prostate
RPMI-8226 leukemia = test system: RPMI-8226 leukemia
SF-268 CNS = test system: SF-268 CNS
SF-295 CNS = test system: SF-295 CNS
SF-539 CNS = test system: SF-539 CNS
SK-MEL-2 melanoma = test system: SK-MEL-2 melanoma
SK-MEL-28 melanoma = test system: SK-MEL-28 melanoma
SK-MEL-5 melanoma = test system: SK-MEL-5 melanoma
SK-OV-3 ovarian = test system: SK-OV-3 ovarian
SN12C renal = test system: SN12C renal
SNB-19 CNS = test system: SNB-19 CNS
SNB-75 CNS = test system: SNB-75 CNS
SR leukemia = test system: SR leukemia
SW-620 colon = test system: SW-620 colon
T-47D breast = test system: T-47D breast
TK-10 renal = test system: TK-10 renal
U251 CNS = test system: U251 CNS
UACC-257 melanoma = test system: UACC-257 melanoma
UACC-62 melanoma = test system: UACC-62 melanoma
UO-31 renal = test system: UO-31 renal
KM12 colon = test system: KM12 colon
RXF 393 renal = test system: RXF 393 renal

## CO[C@]12CC(=O)C3(C(C[C@H]4CC5CCC6=CC(=O)CC[C@]6(OC(C)=O)C5C[C@@]43C)C1)C1C[C@H]3[C@@H]4CCC5=CC(=O)CC[C@]5(OC(C)=O)[C@H]4CC[C@]3(C)C12 (some centres undefined)
786-0 renal
  TGI: > 100 µM
A498 renal
  TGI: > 100 µM
A549 NSCLC
  TGI: > 100 µM
ACHN renal
  TGI: > 100 µM
CAKI-1 renal
  TGI: > 100 µM
CCRF-CEM leukemia
  TGI: > 100 µM
COLO 205 colon
  TGI: 56.7 µM
DU-145 prostate
  TGI: > 100 µM
EKVX NSCLC
  TGI: > 100 µM
HCC-2998 colon
  TGI: > 100 µM
HCT-116 colon
  TGI: > 100 µM
HCT-15 colon
  TGI: > 100 µM
HL-60(TB) leukemia
  TGI: > 100 µM
HOP-62 NSCLC
  TGI: > 100 µM
HOP-92 NSCLC
  TGI: > 100 µM
HS 578T breast
  TGI: > 100 µM
HT29 colon
  TGI: > 100 µM
IGROV1 ovarian
  TGI: > 100 µM
K-562 leukemia
  TGI: > 100 µM
LOX IMVI melanoma
  TGI: > 100 µM
M14 melanoma
  TGI: > 100 µM
MALME-3M melanoma
  TGI: > 100 µM
MCF7 breast
  TGI: > 100 µM
MDA-MB-231 breast
  TGI: 74.7 µM
MDA-MB-435
  TGI: > 100 µM
MDA-N
  TGI: > 100 µM
MOLT-4 leukemia
  TGI: > 100 µM
NCI-H23 lung
  TGI: > 100 µM
NCI-H460 lung
  TGI: > 100 µM
NCI-H522 lung
  TGI: > 100 µM
NCI/ADR-RES ovarian
  TGI: > 100 µM
OVCAR-3 ovarian
  TGI: > 100 µM
OVCAR-4 ovarian
  TGI: > 100 µM
OVCAR-5 ovarian
  TGI: > 100 µM
OVCAR-8 ovarian
  TGI: > 100 µM
PC-3 prostate
  TGI: > 100 µM
RPMI-8226 leukemia
  TGI: > 100 µM
SF-268 CNS
  TGI: > 100 µM
SF-295 CNS
  TGI: > 100 µM
SF-539 CNS
  TGI: > 100 µM
SK-MEL-2 melanoma
  TGI: > 100 µM
SK-MEL-28 melanoma
  TGI: > 100 µM
SK-MEL-5 melanoma
  TGI: > 100 µM
SK-OV-3 ovarian
  TGI: > 100 µM
SN12C renal
  TGI: > 100 µM
SNB-19 CNS
  TGI: > 100 µM
SNB-75 CNS
  TGI: > 100 µM
SR leukemia
  TGI: > 100 µM
SW-620 colon
  TGI: > 100 µM
T-47D breast
  TGI: > 100 µM
TK-10 renal
  TGI: > 100 µM
U251 CNS
  TGI: > 100 µM
UACC-257 melanoma
  TGI: > 100 µM
UACC-62 melanoma
  TGI: > 100 µM
UO-31 renal
  TGI: > 100 µM

## O=CCOCc1cc2c(cc1Br)OCO2
786-0 renal
  TGI: 36.7 µM
A498 renal
  TGI: > 100 µM
A549 NSCLC
  TGI: > 100 µM
ACHN renal
  TGI: 55.1 µM
CAKI-1 renal
  TGI: 42.7 µM
CCRF-CEM leukemia
  TGI: 47.7 µM
COLO 205 colon
  TGI: > 100 µM
DU-145 prostate
  TGI: > 100 µM
EKVX NSCLC
  TGI: > 100 µM
HCC-2998 colon
  TGI: > 100 µM
HCT-116 colon
  TGI: 45 µM
HCT-15 colon
  TGI: 46.1 µM
HL-60(TB) leukemia
  TGI: 48.8 µM
HOP-62 NSCLC
  TGI: > 100 µM
HOP-92 NSCLC
  TGI: > 100 µM
HS 578T breast
  TGI: 44.7 µM
HT29 colon
  TGI: 38.6 µM
IGROV1 ovarian
  TGI: > 100 µM
K-562 leukemia
  TGI: > 100 µM
KM12 colon
  TGI: > 100 µM
LOX IMVI melanoma
  TGI: 47.1 µM
M14 melanoma
  TGI: 46.7 µM
MCF7 breast
  TGI: 42.9 µM
MDA-MB-231 breast
  TGI: 44.4 µM
MDA-MB-435
  TGI: > 100 µM
MDA-N
  TGI: > 100 µM
MOLT-4 leukemia
  TGI: > 100 µM
NCI-H23 lung
  TGI: 28.7 µM
NCI-H460 lung
  TGI: > 100 µM
NCI-H522 lung
  TGI: 33.3 µM
NCI/ADR-RES ovarian
  TGI: 40.4 µM
OVCAR-3 ovarian
  TGI: 35.7 µM
OVCAR-4 ovarian
  TGI: 45.8 µM
OVCAR-5 ovarian
  TGI: > 100 µM
OVCAR-8 ovarian
  TGI: 52.5 µM
PC-3 prostate
  TGI: 59.6 µM
RPMI-8226 leukemia
  TGI: > 100 µM
RXF 393 renal
  TGI: > 100 µM
SF-268 CNS
  TGI: 47.8 µM
SF-295 CNS
  TGI: > 100 µM
SF-539 CNS
  TGI: 50.2 µM
SK-MEL-28 melanoma
  TGI: > 100 µM
SK-MEL-5 melanoma
  TGI: 36.1 µM
SK-OV-3 ovarian
  TGI: > 100 µM
SN12C renal
  TGI: > 100 µM
SNB-75 CNS
  TGI: > 100 µM
SR leukemia
  TGI: 68.1 µM
SW-620 colon
  TGI: 50.3 µM
T-47D breast
  TGI: 61.6 µM
TK-10 renal
  TGI: > 100 µM
U251 CNS
  TGI: 90.5 µM
UACC-257 melanoma
  TGI: > 100 µM
UACC-62 melanoma
  TGI: > 100 µM
UO-31 renal
  TGI: 42.9 µM
